# Earlier results as cited in publication PMC6530635, “A Novel Single-Site Mutation in the Catalytic Domain of Protoporphyrinogen Oxidase IX (PPO) Confers Resistance to PPO-Inhibiting Herbicides” (Frontiers in Plant Science, 2019).
# Test system: Amaranthus palmeri MIS-D population
# Set-up: method as in Salas-Perez et al., 2017
# Settings: MIS-D field population; 1X dose; ref Salas-Perez et al., 2017; cited from earlier work
structure (smiles),measurement,value
Cc1nn(-c2cc(CC(Cl)C(=O)O)c(Cl)cc2F)c(=O)n1C(F)F (stereo not shown) [Carfentrazone],Frequency of resistant plants,20%
